Data: ChEMBL document CHEMBL4359852, “Design, synthesis and biological evaluation of novel 5-(piperazin-1-yl)quinolin-2(1H)-one derivatives as potential chitin synthase inhibitors and antifungal agents” (Eur J Med Chem, 2019)
In brackets after ≈: the same amount, converted by molar mass.

Columns and labels:
[1] = tested on: Saccharomyces cerevisiae; test: Inhibition of Saccharomyces cerevisiae CGMCC 2.145 chitin synthase using GlcNAc and UDP-GlcNAc as substrate at 300 ug/ml incubated for 60 mins by microplate reader analysis relative to control
[2] = tested on: Escherichia coli; test: Antibacterial activity against Escherichia coli JM109 assessed as reduction in bacterial cell growth incubated for overnight by two-fold serial dilution method; format: functional
[3] = tested on: Proteus vulgaris; test: Antibacterial activity against Bacillus proteus ATCC 8427 assessed as reduction in bacterial cell growth incubated for overnight by two-fold serial dilution method; format: functional
[4] = tested on: Staphylococcus aureus; test: Antibacterial activity against Staphylococcus aureus ATCC 25923 assessed as reduction in bacterial cell growth incubated for overnight by two-fold serial dilution method; format: functional
[5] = tested on: Cryptococcus neoformans; test: Antifungal activity against Cryptococcus neoformans ATCC 32719 assessed as reduction in fungal cell growth incubated for 48 hrs by two-fold serial dilution method; format: functional; conditions: ATCC 32719, 48 h
[6] = tested on: Bacillus subtilis; test: Antibacterial activity against Bacillus subtilis ATCC 6633 assessed as reduction in bacterial cell growth incubated for overnight by two-fold serial dilution method; format: functional
[7] = tested on: Candida albicans; test: Antifungal activity against Candida albicans ATCC 76615 assessed as reduction in fungal cell growth incubated for 48 hrs by two-fold serial dilution method; format: functional; conditions: ATCC 76615, 48 h
[8] = tested on: Aspergillus flavus; test: Antifungal activity against Aspergillus flavus ATCC 16870 assessed as reduction in fungal cell growth incubated for 48 hrs by two-fold serial dilution method; format: functional; conditions: ATCC 16870, 48 h
[9] = tested on: Pseudomonas aeruginosa; test: Antibacterial activity against Pseudomonas aeruginosa ATCC 9027 assessed as reduction in bacterial cell growth incubated for overnight by two-fold serial dilution method; format: functional
[10] = tested on: Staphylococcus aureus; test: Antibacterial activity against methicillin resistant Staphylococcus aureus N 315 assessed as reduction in bacterial cell growth incubated for overnight by two-fold serial dilution method; format: functional

SMILES | inhibition [1] | MIC [2] | MIC [3] | MIC [4] | MIC [5] | MIC [6] | MIC [7] | MIC [8] | MIC [9] | MIC [10]
COc1ccccc1NCC(O)CN1CCN(c2cccc3c2CCC(=O)N3)CC1.Cl (racemic) | 45.4% | 258 µg/mL | 256 µg/mL | 256 µg/mL | 512 µg/mL | 256 µg/mL | 128 µg/mL | 256 µg/mL | 128 µg/mL | 128 µg/mL
Cl.O=C1CCc2c(cccc2N2CCN(CC(O)CNCc3ccccc3)CC2)N1 (racemic) | 18.1% | 256 µg/mL | 256 µg/mL | 256 µg/mL | > 512 µg/mL | 256 µg/mL | 128 µg/mL | > 512 µg/mL | 256 µg/mL | 128 µg/mL
Cc1cccc(C)c1NCC(O)CN1CCN(c2cccc3c2CCC(=O)N3)CC1.Cl (racemic) | 40.7% | 128 µg/mL | 128 µg/mL | 128 µg/mL | 256 µg/mL | 128 µg/mL | 128 µg/mL | 256 µg/mL | 128 µg/mL | 256 µg/mL
Cl.O=C1CCc2c(cccc2N2CCN(CC(O)CN(CCO)CCO)CC2)N1 (racemic) | 34.5% | 256 µg/mL | 256 µg/mL | 256 µg/mL | 256 µg/mL | 256 µg/mL | 128 µg/mL | 256 µg/mL | 256 µg/mL | 512 µg/mL
CCN(CC)CC(O)CN1CCN(c2cccc3c2CCC(=O)N3)CC1.Cl (racemic) | 39.4% | 512 µg/mL | 512 µg/mL | 256 µg/mL | 256 µg/mL | 512 µg/mL | 128 µg/mL | 512 µg/mL | 128 µg/mL | 256 µg/mL
CC(C)(C)NCC(O)CN1CCN(c2cccc3c2CCC(=O)N3)CC1.Cl (racemic) | 48.3% | 256 µg/mL | 256 µg/mL | 256 µg/mL | 256 µg/mL | 512 µg/mL | 128 µg/mL | 256 µg/mL | 128 µg/mL | 256 µg/mL
Cl.O=C1CCc2c(cccc2N2CCN(CC(O)CN3CCCCC3)CC2)N1 (racemic) | 32.4% | 128 µg/mL | 256 µg/mL | 256 µg/mL | 256 µg/mL | 256 µg/mL | 64 µg/mL | 256 µg/mL | 256 µg/mL | 512 µg/mL
Cl.O=C1CCc2c(cccc2N2CCN(CC(O)CN3CCCC3)CC2)N1 (racemic) | 49.9% | 128 µg/mL | 256 µg/mL | 256 µg/mL | 256 µg/mL | 256 µg/mL | 128 µg/mL | 256 µg/mL | 512 µg/mL | 256 µg/mL
Cl.O=C1CCc2c(cccc2N2CCN(CC(O)CN3CCOCC3)CC2)N1 (racemic) | 44.7% | 128 µg/mL | 128 µg/mL | 256 µg/mL | 256 µg/mL | 128 µg/mL | 64 µg/mL | 256 µg/mL | 128 µg/mL | 128 µg/mL
Cl.O=C1CCc2c(cccc2N2CCN(CC(O)CN3CCNCC3)CC2)N1 (racemic) | 38.6% | 256 µg/mL | 256 µg/mL | 256 µg/mL | 256 µg/mL | 128 µg/mL | 128 µg/mL | 256 µg/mL | 128 µg/mL | 256 µg/mL
Cl.O=C1CCc2c(cccc2N2CCN(CC(O)CNc3cccc4ccccc34)CC2)N1 (racemic) | 47.5% | 128 µg/mL | 128 µg/mL | 128 µg/mL | 256 µg/mL | 256 µg/mL | 128 µg/mL | 512 µg/mL | 128 µg/mL | 128 µg/mL
OC(Cn1cncn1)(Cn1cncn1)c1ccc(F)cc1F [FLUCONAZOLE] | – | – | – | – | 4 µg/mL (≈ 13.1 µM) | – | 16 µg/mL (≈ 52.2 µM) | 64 µg/mL (≈ 209 µM) | – | –
CCn1cc(C(=O)O)c(=O)c2cc(F)c(N3CCNCC3)cc21 [NORFLOXACIN] | – | 1 µg/mL (≈ 3.13 µM) | 2 µg/mL (≈ 6.26 µM) | 2 µg/mL (≈ 6.26 µM) | – | 1 µg/mL (≈ 3.13 µM) | – | – | 0.5 µg/mL (≈ 1.57 µM) | 2 µg/mL (≈ 6.26 µM)
CN[C@@H]1[C@H](O[C@H]2[C@H](O[C@H]3[C@H](O)[C@@H](O)[C@H](N=C(N)N)[C@@H](O)[C@@H]3N=C(N)N)O[C@@H](C)[C@]2(O)C=O)O[C@@H](CO)[C@H](O)[C@H]1O.CN[C@@H]1[C@H](O[C@H]2[C@H](O[C@H]3[C@H](O)[C@@H](O)[C@H](N=C(N)N)[C@@H](O)[C@@H]3N=C(N)N)O[C@@H](C)[C@]2(O)C=O)O[C@@H](CO)[C@H](O)[C@H]1O.O=S(=O)(O)O.O=S(=O)(O)O.O=S(=O)(O)O [STREPTOMYCIN SULFATE] | – | 4 µg/mL | 16 µg/mL | 8 µg/mL | – | 8 µg/mL | – | – | 16 µg/mL | 32 µg/mL
